Holding throughout (assay type): functional
In experiment [1] the test system is Mus musculus. As to the kind of experiment: In vivo antitumor activity against P-388 leukemia in CDF1 mice at 50 mg or 182 umol by ip administration expressed as median survival time of drug treated mice/median survival time of control mice x100.
In experiment [2] the test system is Mus musculus. As to the kind of experiment: In vivo antitumor activity against P-388 leukemia in CDF1 mice at 400 mg or 1453 umol by ip administration expressed as median survival time of drug treated mice/median survival time of control mice x100.
Experiment [3] relates to Mus musculus. As to the kind of experiment: In vivo antitumor activity against P-388 leukemia in CDF1 mice at 50 mg or 182 umol by ip administration expressed as average wt. change determined between day 0 and day 6 of experiment.
Experiment [4] has as its system Mus musculus. As to the kind of experiment: In vivo antitumor activity against P-388 leukemia in CDF1 mice at 200 mg or 727 umol by ip administration expressed as median survival time of drug treated mice/median survival time of control mice x100.
Experiment [5] has as its system Mus musculus. As to the kind of experiment: In vivo antitumor activity against P-388 leukemia in CDF1 mice at 200 mg or 727 umol by ip administration expressed as average wt. change determined between day 0 and day 6 of experiment.
Experiment [6] relates to Mus musculus. As to the kind of experiment: In vivo antitumor activity against P-388 leukemia in CDF1 mice at 100 mg or 363 umol by ip administration expressed as median survival time of drug treated mice/median survival time of control mice x100.
Experiment [7] deals with Mus musculus. As to the kind of experiment: In vivo antitumor activity against P-388 leukemia in CDF1 mice at 100 mg or 363 umol by ip administration expressed as average wt. change determined between day 0 and day 6 of experiment.
For experiment [8], the system named is Mus musculus. As to the kind of experiment: In vivo antitumor activity against P-388 leukemia in CDF1 mice at 400 mg or 1453 umol by ip administration expressed as average wt. change determined between day 0 and day 6 of experiment.
The subject of experiment [9] is Mus musculus. As to the kind of experiment: effect of drug treatment in combination with gamma radiation on P-388 leukemia in mice at 120 mg/kg and 200R expressed as median survival time of drug treated mice/median survival time of control mice x100.
Experiment [10] relates to Mus musculus. As to the kind of experiment: effect of drug treatment in combination with gamma radiation on P-388 leukemia in mice at 120 mg/kg and 600R expressed as average weight change.
The test system of experiment [11] is Mus musculus. As to the kind of experiment: In vivo antitumor activity against P-388 leukemia in CDF1 mice at 200 mg or 861 umol by ip administration expressed as median survival time of drug treated mice/median survival time of control mice x100.
Experiment [12] concerns Mus musculus. As to the kind of experiment: effect of drug treatment in combination with gamma radiation on P-388 leukemia in mice at 120 mg/kg and 600R expressed as median survival time of drug treated mice/median survival time of control mice x100.
The subject of experiment [13] is Mus musculus. As to the kind of experiment: In vivo antitumor activity against P-388 leukemia in CDF1 mice at 200 mg or 861 umol by ip administration expressed as average wt. change determined between day 0 and day 6 of experiment.
The subject of experiment [14] is Mus musculus. As to the kind of experiment: In vivo antitumor activity against P-388 leukemia in CDF1 mice at 100 mg or 430 umol by ip administration expressed as median survival time of drug treated mice/median survival time of control mice x100.
Experiment [15] deals with Mus musculus. As to the kind of experiment: effect of drug treatment in combination with gamma radiation on P-388 leukemia in mice at 120 mg/kg and 0R expressed as average weight change.
The subject of experiment [16] is Mus musculus. As to the kind of experiment: effect of drug treatment in combination with gamma radiation on P-388 leukemia in mice at 120 mg/kg and 400R expressed as median survival time of drug treated mice/median survival time of control mice x100.
For experiment [17], the system named is Mus musculus. As to the kind of experiment: effect of drug treatment in combination with gamma radiation on P-388 leukemia in mice at 120 mg/kg and 0R expressed as median survival time of drug treated mice/median survival time of control mice x100.
The test system of experiment [18] is Mus musculus. As to the kind of experiment: In vivo antitumor activity against P-388 leukemia in CDF1 mice at 100 mg or 430 umol by ip administration expressed as average wt. change determined between day 0 and day 6 of experiment.
Experiment [19] has as its system Mus musculus. As to the kind of experiment: effect of drug treatment in combination with gamma radiation on P-388 leukemia in mice at 120 mg/kg and 400R expressed as average weight change.
The subject of experiment [20] is Mus musculus. As to the kind of experiment: effect of drug treatment in combination with gamma radiation on P-388 leukemia in mice at 120 mg/kg and 200R expressed as average weight change.
Experiment [21] has as its system Mus musculus. As to the kind of experiment: In vivo antitumor activity against P-388 leukemia in CDF1 mice at 32 mg or 84 umol by ip administration expressed as average wt. change determined between day 0 and day 6 of experiment.
Experiment [22] deals with Mus musculus. As to the kind of experiment: In vivo antitumor activity against P-388 leukemia in CDF1 mice at 128 mg or 335 umol by ip administration expressed as average wt. change determined between day 0 and day 6 of experiment.
Experiment [23] has as its system Mus musculus. As to the kind of experiment: In vivo antitumor activity against P-388 leukemia in CDF1 mice at 16 mg or 42 umol by ip administration expressed as average wt. change determined between day 0 and day 6 of experiment.
Experiment [24] concerns Mus musculus. As to the kind of experiment: In vivo antitumor activity against P-388 leukemia in CDF1 mice at 16 mg or 42 umol by ip administration expressed as median survival time of drug treated mice/median survival time of control mice x100.
Experiment [25] concerns Mus musculus. As to the kind of experiment: In vivo antitumor activity against P-388 leukemia in CDF1 mice at 64 mg or 167 umol by ip administration expressed as median survival time of drug treated mice/median survival time of control mice x100.
Experiment [26] concerns Mus musculus. As to the kind of experiment: In vivo antitumor activity against P-388 leukemia in CDF1 mice at 128 mg or 335 umol by ip administration expressed as median survival time of drug treated mice/median survival time of control mice x100.
In experiment [27] the test system is Mus musculus. As to the kind of experiment: In vivo antitumor activity against P-388 leukemia in CDF1 mice at 8 mg or 21 umol by ip administration expressed as average wt. change determined between day 0 and day 6 of experiment.
For experiment [28], the system named is Mus musculus. As to the kind of experiment: In vivo antitumor activity against P-388 leukemia in CDF1 mice at 8 mg or 21 umol by ip administration expressed as median survival time of drug treated mice/median survival time of control mice x100.
The test system of experiment [29] is Mus musculus. As to the kind of experiment: In vivo antitumor activity against P-388 leukemia in CDF1 mice at 256 mg or 670 umol by ip administration expressed as median survival time of drug treated mice/median survival time of control mice x100.
In experiment [30] the test system is Mus musculus. As to the kind of experiment: In vivo antitumor activity against P-388 leukemia in CDF1 mice at 256 mg or 670 umol by ip administration expressed as average wt. change determined between day 0 and day 6 of experiment.
In experiment [31] the test system is Mus musculus. As to the kind of experiment: In vivo antitumor activity against P-388 leukemia in CDF1 mice at 32 mg or 84 umol by ip administration expressed as median survival time of drug treated mice/median survival time of control mice x100.
The subject of experiment [32] is Mus musculus. As to the kind of experiment: In vivo antitumor activity against P-388 leukemia in CDF1 mice at 64 mg or 167 umol by ip administration expressed as average wt. change determined between day 0 and day 6 of experiment.

Structures are written as SMILES.

For the molecule `CCOC(=O)NP(=O)(N1CC1(C)C)N1CC1(C)C` (centres undefined) [METUREDEPA], the T/C (as a rule, the result in the treated group divided by that in the control group, in per cent) in [1] was determined as 163%; in experiment [2] it was 244%; in experiment [4], 231%; in [6], 181%. Further, the Average weight change in experiment [3] is on record as -0.7 g; in [5], -0.2 g; in [7], -0.4 g; in [8] it was -1.3 g.
On to `CCOP(=O)(N1CC1(C)C)N1CC1(C)C` (centres undefined), for which the T/C stood at 250% in experiment [9]; 433% in experiment [11]; 80% in experiment [12]; 289% in experiment [14]; 160% in experiment [16]; 400% in [17]. The Average weight change in experiment [10] is listed as -3.58 g; in [13] it was -5.2 g; in [15] it was 0.83 g; in experiment [18] it was -2.6 g; in experiment [19], -0.93 g; in experiment [20], 0.33 g.
On to `CC1(C)CN1P(=O)(NC(=O)OCc1ccc([N+](=O)[O-])cc1)N1CC1(C)C` (centres undefined), for which the Average weight change was determined as 2.1 g in experiment [21]; 2 g in experiment [22]; 1.2 g in experiment [23]; 1.4 g in experiment [27]; 0.6 g in experiment [30]; 1.4 g in experiment [32]. Moreover, the T/C in [24] stood at 113%; in experiment [25], 113%; in experiment [26] it was 113%; in [28] it was 113%; in experiment [29] it was 119%; in experiment [31], 106%.
Take `CC1(C)CN1P(=O)(NC(=O)OCc1ccccc1[N+](=O)[O-])N1CC1(C)C` (centres undefined): the Average weight change in experiment [21] was -0.4 g; in [22] it was -1.1 g; in experiment [23], 0 g; in experiment [27], 0.6 g; in [30], -1.5 g; in experiment [32], -1.1 g. The T/C in experiment [24] came to 106%; in experiment [25], 129%; in experiment [26], 141%; in experiment [28], 106%; in experiment [29] it was 153%; in experiment [31], 118%.

Values taken from ChEMBL document CHEMBL1125669, “Synthesis of potential dual-acting radiation sensitizer antineoplastic agents: 2,2-dimethylphosphoraziridines containing 2-nitroimidazoles or other electron-affinic moieties” (1991).
